The numbers were not newly measured in US20150272967A1, “EXTREMELY HIGH LOADING DOSE” (priority 2013, published 2015), which cites them from elsewhere.

The subject of one data set is prostate cancer patients. As to conditions: dose significantly lower than that of the invention.
The next data set relates to breast cancer patients. The conditions noted are these: modest low doses.

As for `C=C1CC[C@H](O)C/C1=C/C=C1\CCC[C@]2(C)[C@@H]([C@H](C)CCCC(C)C)CC[C@@H]12` [Vitamin D3, cholecalciferol], in the data set on prostate cancer patients, the “patients showing improvement (significant decrease in the number of positive cancer biopsy samples)” value is 55%. On to Vitamin D, for which the disease free survival in the data set with breast cancer patients (25.5 without supplementation) is 32.6 months. Also, the median overall survival with breast cancer patients (32.8 without supplementation) is listed as 43.8 months.
